Measurements reported in patent US20260217701A1, “SELECTIVE BET INHIBITORS AND USES THEREOF” (Tay Therapeutics Limited, priority 2022, published 2026).
“And” between values parts separate entries of the source, which are not always exact repeats. Equal entries are not always repeated.

Test system: collagen-induced arthritis
Experiment: Collagen-induced arthritis (CIA) model: clinical scores and paw volume; for Average animal paw volume percent change (%): reference of the scale not given here; for animal paw volume percent change (%): reference of the scale not given here
Assay type: in vivo, Lewis rats
Settings: for Average animal paw volume / Average animal paw volume percent change (%) / Animal paw volume percent change (%): group 3 CIA + Dexamethasone; for Animal paw volume percent change (%) / clinical score left forelimb / clinical score left hind limb / clinical score right forelimb / clinical score right hind limb / clinical score, score (all limbs) / Animal paw volume: individual animals; for Overall Clinical Score: individual animals 1-8; for Animal paw volume: Group 3 (CIA + Dexamethasone)
[1] = group 3 CIA+ Dexamethasone, Day 18
[2] = group 3 CIA+ Dexamethasone, Day 19
[3] = group 3 CIA+ Dexamethasone, Day 20

C[C@@H]1C[C@H]2[C@@H]3CCC4=CC(=O)C=C[C@]4(C)[C@@]3(F)[C@@H](O)C[C@]2(C)[C@@]1(O)C(=O)CO [Dexamethasone, dexamethasone]
Average animal paw volume (Day 0, L paw): 1.33 mL
Average animal paw volume percent change (%) (Day 0, L paw): 0.00%
Animal paw volume percent change (%) (Day 0, L paw): 0.00%
Average animal paw volume (Day 0, R paw): 1.33 mL
Average animal paw volume percent change (%) (Day 0, R paw): 0.00%
Animal paw volume percent change (%) (Day 0, R paw): 0.00%
Average detailed clinical score, left forelimb (Day 0, CIA): 0.00
Average detailed clinical score, left hind limb (Day 0, CIA): 0.00
Average detailed clinical score, right forelimb (Day 0, CIA): 0.00
Average detailed clinical score, right hind limb (Day 0, CIA): 0.00
Average detailed clinical score, score (Day 0, CIA): 0.00
Average overall clinical score (Day 0, CIA): 0
clinical score left forelimb (Day 0, CIA): 0
clinical score left hind limb (Day 0, CIA): 0
clinical score right forelimb (Day 0, CIA): 0
clinical score right hind limb (Day 0, CIA): 0
clinical score, score (all limbs) (Day 0, CIA): 0
Overall Clinical Score (Day 0, CIA): 0
Animal paw volume (Day 0, L paw): 1.35 mL and 1.31 mL and 1.39 mL and 1.33 mL and 1.30 mL (2×) and 1.34 mL and 1.36 mL
Animal paw volume (Day 0, R paw): 1.34 mL and 1.30 mL (2×) and 1.38 mL and 1.35 mL and 1.29 mL and 1.36 mL and 1.37 mL
Average animal paw volume (Day 6, L paw): 1.29 mL
Average animal paw volume percent change (%) (Day 6, L paw): -3.37%
Animal paw volume percent change (%) (Day 6, L paw): −2.97% and −1.53% and −3.61% and −3.02% and −3.09% and −3.08% and −4.12% and 5.51%
Average animal paw volume (Day 6, R paw): 1.29 mL
Average animal paw volume percent change (%) (Day 6, R paw): -3.26%
Animal paw volume percent change (%) (Day 6, R paw): −3.00% and 1.16% and −2.91% and −3.72% and −1.56% and −2.70% and −5.90% and −5.13%
Average detailed clinical score, left forelimb (Day 6, CIA): 0.00
Average detailed clinical score, left hind limb (Day 6, CIA): 0.00
Average detailed clinical score, right forelimb (Day 6, CIA): 0.00
Average detailed clinical score, right hind limb (Day 6, CIA): 0.00
Average detailed clinical score, score (Day 6, CIA): 0.00
Average overall clinical score (Day 6, CIA): 0
clinical score left forelimb (Day 6, CIA): 0
clinical score left hind limb (Day 6, CIA): 0
clinical score right forelimb (Day 6, CIA): 0
clinical score right hind limb (Day 6, CIA): 0
clinical score, score (all limbs) (Day 6, CIA): 0
Overall Clinical Score (Day 6, CIA): 0
Animal paw volume (Day 6, L paw): 1.31 mL and 1.29 mL (3×) and 1.34 mL and 1.28 mL
Animal paw volume (Day 6, R paw): 1.30 mL (3×) and 1.28 mL (2×) and 1.34 mL and 1.27 mL
Average animal paw volume (Day 12, L paw): 1.27 mL
Average animal paw volume percent change (%) (Day 12, L paw): -4.94%
Animal paw volume percent change (%) (Day 12, L paw): −10.41% and −7.66% and −1.44% and −3.40% and −1.54% and −6.54% and −3.00% and −5.51%
Average animal paw volume percent change (%) (Day 12, R paw): -5.21%
Animal paw volume percent change (%) (Day 12, R paw): −6.74% and −3.09% and 0.73% and −7.43% and −1.56% and −9.27% and −7.01% and −5.86%
Average detailed clinical score, left forelimb (Day 12, CIA): 0.00
Average detailed clinical score, left hind limb (Day 12, CIA): 0.00
Average detailed clinical score, right forelimb (Day 12, CIA): 0.00
Average detailed clinical score, right hind limb (Day 12, CIA): 0.00
Average detailed clinical score, score (Day 12, CIA): 0.00
Average overall clinical score (Day 12, CIA): 0
clinical score left forelimb (Day 12, CIA): 0
clinical score left hind limb (Day 12, CIA): 0
clinical score right forelimb (Day 12, CIA): 0
clinical score right hind limb (Day 12, CIA): 0
clinical score, score (all limbs) (Day 12, CIA): 0
Overall Clinical Score (Day 12, CIA): 0
Animal paw volume (Day 12, L paw): 1.37 mL and 1.28 mL (2×) and 1.30 mL and 1.29 mL
Animal paw volume (Day 12, R paw): 1.37 mL and 1.27 mL and 1.29 mL
Average animal paw volume (Day 13, L paw): 1.28 mL
Average animal paw volume percent change (%) (Day 13, L paw): -3.57%
Animal paw volume percent change (%) (Day 13, L paw): −8.92% and −5.36% and 0.72% and −3.02% and 0.00% and 4.23% and −2.25% and −5.51%
Average animal paw volume (Day 13, R paw): 1.28 mL
Average animal paw volume percent change (%) (Day 13, R paw): -4.08%
Animal paw volume percent change (%) (Day 13, R paw): −5.99% and −2.32% and 0.36% and −7.43% and −0.78% and −6.95% and −3.69% and 5.86%
Average detailed clinical score, left forelimb (Day 13, CIA): 0
Average detailed clinical score, left hind limb (Day 13, CIA): 0
Average detailed clinical score, right forelimb (Day 13, CIA): 0
Average detailed clinical score, right hind limb (Day 13, CIA): 0
Average detailed clinical score, score (Day 13, CIA): 0
Average overall clinical score (Day 13, CIA): 0
clinical score left forelimb (Day 13, CIA): 0
clinical score left hind limb (Day 13, CIA): 0
clinical score right forelimb (Day 13, CIA): 0
clinical score right hind limb (Day 13, CIA): 0
clinical score, score (all limbs) (Day 13, CIA): 0
Overall Clinical Score (Day 13, CIA): 0
Animal paw volume (Day 13, L paw): 1.40 mL and 1.29 mL (2×) and 1.30 mL and 1.31 mL
Animal paw volume (Day 13, R paw): 1.27 mL and 1.38 mL and 1.28 mL and 1.31 mL and 1.29 mL
Average animal paw volume (Day 14, L paw): 1.27 mL
Average animal paw volume percent change (%) (Day 14, L paw): -4.60%
Animal paw volume percent change (%) (Day 14, L paw): −8.18% and −5.36% and 0.00% and −4.53% and −1.54% and −5.00% and −3.75% and −8.46%
Average animal paw volume percent change (%) (Day 14, R paw): -5.07%
Animal paw volume percent change (%) (Day 14, R paw): −5.62% and −2.70% and 0.00% and −8.92% and −2.33% and −7.72% and −5.17% and −8.06%
Average detailed clinical score, left forelimb (Day 14, CIA): 0
Average detailed clinical score, left hind limb (Day 14, CIA): 0
Average detailed clinical score, right forelimb (Day 14, CIA): 0
Average detailed clinical score, right hind limb (Day 14, CIA): 0
Average detailed clinical score, score (Day 14, CIA): 0
Average overall clinical score (Day 14, CIA): 0
clinical score left forelimb (Day 14, CIA): 0
clinical score left hind limb (Day 14, CIA): 0
clinical score right forelimb (Day 14, CIA): 0
clinical score right hind limb (Day 14, CIA): 0
clinical score, score (all limbs) (Day 14, CIA): 0
Overall Clinical Score (Day 14, CIA): 0
Animal paw volume (Day 14, L paw): 1.39 mL and 1.27 mL and 1.28 mL and 1.29 mL
Animal paw volume (Day 14, R paw): 1.38 mL and 1.29 mL
Average animal paw volume percent change (%) (Day 15, L paw): −5.47%
Animal paw volume percent change (%) (Day 15, L paw): −8.92% and −7.28% and −2.17%
Average animal paw volume percent change (%) (Day 15, R paw): −5.41%
Animal paw volume percent change (%) (Day 15, R paw): −6.74% and −4.25% and 1.45%
Average detailed clinical score, left forelimb (Day 15, CIA): 0
Average detailed clinical score, left hind limb (Day 15, CIA): 0
Average detailed clinical score, right forelimb (Day 15, CIA): 0
Average detailed clinical score, right hind limb (Day 15, CIA): 0
Average detailed clinical score, score (Day 15, CIA): 0
Average overall clinical score (Day 15, CIA): 0
clinical score left forelimb (Day 15, CIA): 0
clinical score left hind limb (Day 15, CIA): 0
clinical score right forelimb (Day 15, CIA): 0
clinical score right hind limb (Day 15, CIA): 0
clinical score, score (all limbs) (Day 15, CIA): 0
Overall Clinical Score (Day 15, CIA): 0
Animal paw volume (Day 15, L paw): 1.36 mL and 1.28 mL and 1.33 mL and 1.27 mL
Animal paw volume (Day 15, R paw): 1.36 mL and 1.27 mL (2×) and 1.32 mL
Average animal paw volume (Day 18, L paw): 1.29 mL
Average animal paw volume percent change (%) (Day 18, L paw): −3.01%
Animal paw volume percent change (%) (Day 18, L paw): −5.20% and −6.51% and 4.33%
Average animal paw volume (Day 18, R paw): 1.29 mL
Average animal paw volume percent change (%) (Day 18, R paw): −3.14%
Animal paw volume percent change (%) (Day 18, R paw): 4.49% and −4.63% and 4.36%
Average detailed clinical score, left forelimb (Day 18, CIA): 0.00
Average detailed clinical score, left hind limb (Day 18, CIA): 0.00
Average detailed clinical score, right forelimb (Day 18, CIA): 0.00
Average detailed clinical score, right hind limb (Day 18, CIA): 0.00
Average detailed clinical score, score (Day 18, CIA): 0.00
Average overall clinical score (Day 18, CIA): 0
Overall Clinical Score (Day 18, CIA): 0
Animal paw volume (Day 18, L paw): 1.28 mL and 1.45 mL and 1.31 mL and 1.29 mL and 1.34 mL and 1.30 mL
Animal paw volume (Day 18, R paw): 1.28 mL and 1.44 mL and 1.31 mL and 1.29 mL (2×) and 1.34 mL
Average animal paw volume (Day 19, L paw): 1.29 mL
Average animal paw volume percent change (%) (Day 19, L paw): −3.33%
Animal paw volume percent change (%) (Day 19, L paw): 5.20% and −6.90%
Average animal paw volume (Day 19, R paw): 1.28 mL
Average animal paw volume percent change (%) (Day 19, R paw): −3.57%
Animal paw volume percent change (%) (Day 19, R paw): −5.24% and −6.18%
Average detailed clinical score, left forelimb (Day 19, CIA): 0.00
Average detailed clinical score, left hind limb (Day 19, CIA): 0.00
Average detailed clinical score, right forelimb (Day 19, CIA): 0.00
Average detailed clinical score, right hind limb (Day 19, CIA): 0.00
Average detailed clinical score, score (Day 19, CIA): 0.00
Average overall clinical score (Day 19, CIA): 0
Overall Clinical Score (Day 19, CIA): 0
Animal paw volume (Day 19, L paw): 1.28 mL (2×) and 1.44 mL and 1.30 mL (2×) and 1.33 mL
Animal paw volume (Day 19, R paw): 1.27 mL (2×) and 1.44 mL and 1.31 mL and 1.32 mL and 1.30 mL
Average animal paw volume (Day 21, L paw): 1.28 mL
Average animal paw volume percent change (%) (Day 21, L paw): −3.56%
Animal paw volume percent change (%) (Day 21, L paw): −6.32% and −6.90%
Average animal paw volume (Day 21, R paw): 1.29 mL
Average animal paw volume percent change (%) (Day 21, R paw): −3.51%
Animal paw volume percent change (%) (Day 21, R paw): −5.99% and −6.18%
Average detailed clinical score, left forelimb (Day 21, CIA): 0.00
Average detailed clinical score, left hind limb (Day 21, CIA): 0.00
Average detailed clinical score, right forelimb (Day 21, CIA): 0.00
Average detailed clinical score, right hind limb (Day 21, CIA): 0.00
Average detailed clinical score, score (Day 21, CIA): 0.00
Average overall clinical score (Day 21, CIA): 0
Overall Clinical Score (Day 21, CIA): 0
Animal paw volume (Day 21, L paw): 1.43 mL and 1.31 mL (2×) and 1.30 mL (2×)
Animal paw volume (Day 21, R paw): 1.43 mL and 1.31 mL and 1.30 mL (2×) and 1.32 mL
clinical score left forelimb [1]: 0
clinical score left hind limb [1]: 0
clinical score right forelimb [1]: 0
clinical score right hind limb [1]: 0
clinical score, score (all limbs) [1]: 0
clinical score left forelimb [2]: 0
clinical score left hind limb [2]: 0
clinical score right forelimb [2]: 0
clinical score right hind limb [2]: 0
clinical score, score (all limbs) [2]: 0
clinical score left forelimb [3]: 0
clinical score left hind limb [3]: 0
clinical score right forelimb [3]: 0
clinical score right hind limb [3]: 0
clinical score, score (all limbs) [3]: 0
